The record followed here is PubChem BioAssay (NCI).

Among the test systems are MDA-MB-231 breast; SR leukemia; OVCAR-3 ovarian; SNB-19 CNS; CCRF-CEM leukemia; 786-0 renal; UACC-257 melanoma; SK-OV-3 ovarian; IGROV1 ovarian; SK-MEL-5 melanoma; HCT-116 colon; A498 renal; SN12C renal; OVCAR-5 ovarian; PC-3 prostate.
Holding throughout (assay): NCI-60 cell line screen, 48 h

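A five-concentration, 48-hour dose response in 96-well plates underlies each endpoint, interpolated linearly between surrounding concentrations. At the TGI there is no net growth.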

Regarding `O=[N+]([O-])c1ccc(NC(=S)Nc2ccccn2)cc1`, the TGI is more than 100 µM in the experiment with MDA-MB-231 breast; more than 100 µM in the experiment with SR leukemia; 99.4 µM in the experiment with OVCAR-3 ovarian; more than 100 µM in the experiment on SNB-19 CNS; more than 100 µM in the experiment on CCRF-CEM leukemia; more than 59 µM in the experiment with 786-0 renal. For the same compound, the TGI is more than 100 µM with UACC-257 melanoma; more than 100 µM with SK-OV-3 ovarian; more than 100 µM in the experiment on IGROV1 ovarian; more than 100 µM in the experiment with SK-MEL-5 melanoma; more than 100 µM in the experiment with HCT-116 colon; 45.6 µM in the experiment on A498 renal. In addition, the TGI in the experiment on SN12C renal, in the experiment on OVCAR-5 ovarian and in the experiment on PC-3 prostate was more than 100 µM throughout.
Consider `CCOC(=O)C(=CNC(=S)Nc1c(CC)cccc1CC)C(=O)OCC`, for which the TGI in the experiment on MDA-MB-231 breast, with SR leukemia, in the experiment with OVCAR-3 ovarian, with SNB-19 CNS, in the experiment with CCRF-CEM leukemia and with 786-0 renal was more than 100 µM throughout. In addition, the TGI with UACC-257 melanoma, in the experiment on SK-OV-3 ovarian, in the experiment with IGROV1 ovarian, in the experiment on SK-MEL-5 melanoma, in the experiment on HCT-116 colon and in the experiment with A498 renal was more than 100 µM in each case. For the same compound, the TGI with SN12C renal, in the experiment on OVCAR-5 ovarian and in the experiment with PC-3 prostate was more than 100 µM each time.
With `Clc1ccccc1-c1nnc2c(-c3ccccc3)nc3ccccc3n12`, the TGI in the experiment with MDA-MB-231 breast is more than 100 µM; with SR leukemia, more than 100 µM; with OVCAR-3 ovarian it was more than 100 µM; in the experiment with SNB-19 CNS, more than 100 µM; in the experiment with CCRF-CEM leukemia it was 83.2 µM; in the experiment with 786-0 renal, more than 100 µM. The TGI with UACC-257 melanoma, in the experiment on SK-OV-3 ovarian, in the experiment on IGROV1 ovarian, in the experiment with SK-MEL-5 melanoma, in the experiment on HCT-116 colon and in the experiment on A498 renal was more than 100 µM in each case. In addition, the TGI with SN12C renal, with OVCAR-5 ovarian and in the experiment on PC-3 prostate was more than 100 µM throughout.
On to `Nc1cccc(C#Cc2cccc(C#Cc3cccc(N)n3)n2)n1`, for which the TGI with MDA-MB-231 breast was more than 100 µM; in the experiment with SR leukemia it was more than 100 µM; with OVCAR-3 ovarian, more than 100 µM; in the experiment with SNB-19 CNS, more than 100 µM; in the experiment with CCRF-CEM leukemia, 31.4 µM; in the experiment on 786-0 renal, more than 100 µM. Besides, the TGI in the experiment on UACC-257 melanoma, in the experiment on SK-OV-3 ovarian, with IGROV1 ovarian, in the experiment with SK-MEL-5 melanoma, with HCT-116 colon and in the experiment on A498 renal was more than 100 µM throughout. Also, the TGI in the experiment with SN12C renal, in the experiment on OVCAR-5 ovarian and in the experiment with PC-3 prostate was more than 100 µM throughout.
Regarding `CCOC(=O)c1nc2ccccc2nc1Oc1ccc(OC)cc1`, the TGI with MDA-MB-231 breast, in the experiment with SR leukemia, in the experiment with OVCAR-3 ovarian, with SNB-19 CNS, in the experiment with CCRF-CEM leukemia and in the experiment on 786-0 renal was more than 100 µM each time. In addition, the TGI in the experiment on UACC-257 melanoma, in the experiment on SK-OV-3 ovarian, in the experiment with IGROV1 ovarian, in the experiment with SK-MEL-5 melanoma, in the experiment on HCT-116 colon and in the experiment on A498 renal was more than 100 µM throughout. Also, the TGI in the experiment with SN12C renal, in the experiment with OVCAR-5 ovarian and with PC-3 prostate was more than 100 µM throughout.
Consider `CCSC(=O)/C=C1\CN(C(=O)OC(C)(C)C)C1C(=O)OC(C)(C)C` (stereo not given), for which the TGI with MDA-MB-231 breast is 12.7 µM; in the experiment with SR leukemia, 2.48 µM; in the experiment with OVCAR-3 ovarian, 6.13 µM; in the experiment with SNB-19 CNS, 25.5 µM; with CCRF-CEM leukemia, 3.97 µM; with 786-0 renal it was 6.23 µM. In addition, the TGI in the experiment with UACC-257 melanoma is 8.91 µM; in the experiment with SK-OV-3 ovarian, 28.2 µM; in the experiment on IGROV1 ovarian it was 14.6 µM; with SK-MEL-5 melanoma it was 12.6 µM; with HCT-116 colon it was 3 µM; in the experiment on A498 renal, 23.9 µM. The TGI in the experiment with SN12C renal came out at 7.06 µM; in the experiment with OVCAR-5 ovarian, 14.3 µM; with PC-3 prostate, 18.1 µM.
`O=C(NCCN1CCCC1)c1cn2c(ccc3sc4ccccc4c(=O)c32)n1`: the TGI in the experiment on MDA-MB-231 breast was determined as 7.52 µM; in the experiment with SR leukemia, 8.79 µM; in the experiment with OVCAR-3 ovarian, 29.1 µM; in the experiment on SNB-19 CNS, 31.2 µM; in the experiment on CCRF-CEM leukemia, 4.53 µM; with 786-0 renal, 2.78 µM. Besides, the TGI was determined as 35 µM in the experiment with UACC-257 melanoma; 30 µM in the experiment on SK-OV-3 ovarian; 25 µM with IGROV1 ovarian; 31.2 µM in the experiment on SK-MEL-5 melanoma; 8.57 µM in the experiment with HCT-116 colon; 33.1 µM in the experiment with A498 renal. In addition, the TGI was 26.9 µM in the experiment with SN12C renal, 24.2 µM in the experiment on OVCAR-5 ovarian and 27.4 µM in the experiment with PC-3 prostate.
With `COC(=O)CC1(O)C(/C=C/c2ccccc2)C(C(=O)OC)C(=O)C(C(=O)OC)C1C(=O)OC` (stereo not given), the TGI in the experiment with MDA-MB-231 breast, with SR leukemia, with OVCAR-3 ovarian, in the experiment on SNB-19 CNS, with CCRF-CEM leukemia and with 786-0 renal was more than 100 µM in each case. Further, the TGI with UACC-257 melanoma, in the experiment on SK-OV-3 ovarian, in the experiment with IGROV1 ovarian, in the experiment with SK-MEL-5 melanoma, in the experiment on HCT-116 colon and in the experiment on A498 renal was more than 100 µM each time. In addition, the TGI with SN12C renal, in the experiment with OVCAR-5 ovarian and in the experiment with PC-3 prostate was more than 100 µM in each case.
Take `Clc1ccc(-c2nc3ccc(C45CC6CC(CC(C6)C4)C5)cc3[nH]2)cc1`: the TGI with MDA-MB-231 breast, with SR leukemia, with OVCAR-3 ovarian, with SNB-19 CNS, in the experiment with CCRF-CEM leukemia and with 786-0 renal was more than 100 µM throughout. The TGI was more than 65.7 µM in the experiment on UACC-257 melanoma; more than 100 µM in the experiment with SK-OV-3 ovarian; more than 100 µM in the experiment on IGROV1 ovarian; 60.4 µM in the experiment with SK-MEL-5 melanoma; more than 100 µM with HCT-116 colon; more than 100 µM with A498 renal. The TGI with SN12C renal, with OVCAR-5 ovarian and in the experiment on PC-3 prostate was more than 100 µM throughout.
With `[O-]c1c[n+](CC[n+]2cc([O-])on2)no1`, the TGI with MDA-MB-231 breast, in the experiment on SR leukemia, in the experiment on OVCAR-3 ovarian, in the experiment with SNB-19 CNS, in the experiment on CCRF-CEM leukemia and in the experiment with 786-0 renal was more than 100 µM each time. Besides, the TGI with UACC-257 melanoma, in the experiment with SK-OV-3 ovarian, in the experiment with IGROV1 ovarian, in the experiment with SK-MEL-5 melanoma, with HCT-116 colon and in the experiment with A498 renal was more than 100 µM throughout. The TGI in the experiment with SN12C renal, with OVCAR-5 ovarian and with PC-3 prostate was more than 100 µM in each case.
For the compound `C1=NCCNCCN=Cc2ccccc2OCc2cccc(n2)COc2ccccc21`, the TGI with MDA-MB-231 breast is more than 95.5 µM; with SR leukemia, more than 100 µM; in the experiment with OVCAR-3 ovarian it was more than 65.3 µM; in the experiment on SNB-19 CNS, more than 100 µM; with CCRF-CEM leukemia it was more than 34.3 µM; in the experiment on 786-0 renal it was more than 39.1 µM. In addition, the TGI in the experiment with UACC-257 melanoma was more than 100 µM; with SK-OV-3 ovarian it was more than 100 µM; with IGROV1 ovarian, more than 100 µM; in the experiment on SK-MEL-5 melanoma, more than 49.5 µM; in the experiment with HCT-116 colon, more than 100 µM; with A498 renal, more than 100 µM. The TGI with SN12C renal was more than 100 µM; in the experiment on OVCAR-5 ovarian it was more than 100 µM; in the experiment on PC-3 prostate, more than 95.3 µM.
Take `CC(C)c1nc2c(Cl)c3ncccc3cc2[nH]c1=O`: the TGI with MDA-MB-231 breast, in the experiment with SR leukemia, in the experiment on OVCAR-3 ovarian, in the experiment with SNB-19 CNS, with CCRF-CEM leukemia and in the experiment with 786-0 renal was more than 100 µM each time. Besides, the TGI in the experiment on UACC-257 melanoma, with SK-OV-3 ovarian, with IGROV1 ovarian, in the experiment with SK-MEL-5 melanoma, in the experiment with HCT-116 colon and in the experiment with A498 renal was more than 100 µM in each case. Besides, the TGI in the experiment with SN12C renal, in the experiment with OVCAR-5 ovarian and with PC-3 prostate was more than 100 µM each time.
On to `CC(C)c1ccc2[nH]c(O)c(C3=Nc4ccccc4C3=O)c2c1`, for which the TGI in the experiment on MDA-MB-231 breast is 48 µM; in the experiment on SR leukemia, 54.5 µM; in the experiment on OVCAR-3 ovarian, 53.8 µM; with SNB-19 CNS it was 57.2 µM; in the experiment on CCRF-CEM leukemia, more than 100 µM; in the experiment on 786-0 renal, 12.3 µM. Also, the TGI in the experiment on UACC-257 melanoma was more than 100 µM; in the experiment with SK-OV-3 ovarian, 30.2 µM; with IGROV1 ovarian, 65.8 µM; in the experiment on SK-MEL-5 melanoma, more than 100 µM; in the experiment with HCT-116 colon it was 68 µM; with A498 renal it was 5.5 µM. In addition, the TGI in the experiment on SN12C renal was more than 100 µM; with OVCAR-5 ovarian, more than 100 µM; in the experiment on PC-3 prostate, 54.8 µM.
As for `CN(C)/C=C/c1nnnn1-c1ccc(I)cc1`, the TGI with MDA-MB-231 breast was 40.9 µM; with SR leukemia it was 41.6 µM; in the experiment with OVCAR-3 ovarian, 54.5 µM; in the experiment on SNB-19 CNS it was 59.2 µM; in the experiment with CCRF-CEM leukemia, 25.9 µM; in the experiment with 786-0 renal, more than 100 µM. Moreover, the TGI in the experiment on UACC-257 melanoma was 67.5 µM; with SK-OV-3 ovarian it was 53.3 µM; in the experiment on IGROV1 ovarian, 38 µM; with SK-MEL-5 melanoma, 33 µM; with HCT-116 colon, 23.5 µM; in the experiment with A498 renal, more than 100 µM. The TGI was more than 100 µM in the experiment with SN12C renal, 56.4 µM in the experiment with OVCAR-5 ovarian and 46.2 µM with PC-3 prostate.
